Where a name gives a salt, the structure may show the parent alone. Read-outs that look alike come from different tables or passages of the source.
System: murine neural precursor cells (neurosphere cultures)
Assay: HTS of LOPAC library against secondary neurosphere cultures, MTT proliferation assay at 3 μM, day 7 (z score, P value)
Assay type: cell-based, mouse
[1] = primary LOPAC screen, 3 μM, MTT, neurosphere proliferation
[2] = yes/no: significantly inhibited neurosphere proliferation in the primary screen
[3] = LOPAC library screen at 3 μM, MTT, secondary neurosphere cultures, screened in singlets
[4] = LOPAC screen, neurosphere MTT proliferation, 3 μM, day 7
[5] = yes/no: significantly inhibited neurosphere proliferation (P<0.01) in primary screen
[6] = LOPAC primary screen, neurosphere MTT proliferation, 3 μM, day 7
[7] = LOPAC library screen at 3 μM, secondary neurosphere cultures, MTT
[8] = yes/no: significantly inhibited neurosphere proliferation (P<0.01) in the primary screen
[9] = LOPAC library screen, 3 μM, MTT, secondary neurosphere cultures, day 7
[10] = yes = significantly inhibited neurosphere proliferation (P<0.01) in the primary screen
[11] = LOPAC library screen, 3 μM, MTT, neurosphere cultures

For `N#C/C(=C\c1ccc(O)c(O)c1)C(=O)NCCCNC(=O)/C(C#N)=C/c1ccc(O)c(O)c1` [Tyrphostin AG 537], the “Z Score” value was −1.249, the Z score [1] was −1.249 and the Activity [2] was “no”.

With `CN/C(=N/CCSCc1nc[nH]c1C)NC#N` [Cimetidine] the “Z Score” value [3] was 1.665, the Z score [4] was 1.665 and the Activity [5] was “no”.

For `Br.Oc1ccc(C2CNCc3sccc32)cc1O` (stereo not shown) [SKF 89626], the Activity was “no”, the “Z Score” value was −0.04369 and the Z score [6] was −0.044.

`Cl.Nc1cc(Cl)c(N=C2NCCN2)c(Cl)c1` [p-Aminoclonidine hydrochloride] was tested, and the “Z Score” value was −0.04776, the Z score [6] was −0.048 and the Activity (yes/no: significantly inhibited neurosphere proliferation in primary screen) was “no”.

For `COc1ccc(NC(=O)c2ccc(-c3ccc(-c4noc(C)n4)cc3C)cc2)cc1N1CCN(C)CC1` [GR 127935 hydrochloride], the “Z Score” value [7] was −1.081, the Z score [6] was −1.081 and the Activity [8] was “no”.

`C[C@H](Cc1ccc2c(c1)OC(C(=O)[O-])(C(=O)[O-])O2)NC[C@H](O)c1cccc(Cl)c1.[Na+].[Na+]` [CL 316,243] was tested, and the Z score [4] was 0.621 and the Activity [5] was “no”.

For `CC(=O)[C@]1(O)Cc2c(O)c3c(c(O)c2[C@@H](O[C@H]2C[C@H](N)[C@H](O)[C@H](C)O2)C1)C(=O)c1ccccc1C3=O` [Idarubicin], the “Z Score” value [9] was −11.27, the Z score [6] was −11.274 and the Activity [10] was “yes”.

With `CCN1CCC[C@H]1CNC(=O)c1c(OC)ccc(I)c1O` [S(−)-IBZM] the “Z Score” value was −0.1166, the Z score [6] was −0.117 and the Activity [8] was “no”.

With `NCCNC(=O)Cc1ccc(NC(=O)Cc2ccc(Nc3ncnc4c3ncn4[C@@H]3O[C@H](CO)[C@@H](O)[C@H]3O)cc2)cc1` [Adenosine amine congener] the “Z Score” value [7] was −0.3345, the Z score [1] was −0.334 and the Activity [2] was “no”.

In the case of `CN(C)CCC=C1c2ccccc2C=Cc2ccccc21` [Cyclobenzaprine hydrochloride], the “Z Score” value [11] is reported as 0.07186, the Z score [4] is reported as 0.072 and the Activity [5] is reported as “no”.

In the case of `O=C(O)C1CCNCC1` [Isonipecotic acid], the “Z Score” value (168 h, 3 µM) is reported as −0.4569, the Z score (168 h, 3 µM) is reported as −0.457 and the Activity [5] is reported as “no”.

For `COC(=O)C1=C(C)NC(C)=C(C(=O)OCCN(C)Cc2ccccc2)C1c1cccc([N+](=O)[O-])c1` (stereo not shown) [Nicardipine hydrochloride], the “Z Score” value [3] was 1.869, the Z score [6] was 1.869 and the Activity [10] was “no”.

With `Nc1ncnc2c1c(-c1ccc(Oc3ccccc3)cc1)cn2C1CCCC1` the “Z Score” value was −1.412, the Z score [4] was −1.412 and the Activity [5] was “no”.

In the case of `c1ccc2c(c1)CCCC2C1=NCCN1` (stereo not shown) [Tetrahydrozoline hydrochloride], the “Z Score” value [7] is reported as −0.4693, the Z score [1] is reported as −0.469 and the Activity [2] is reported as “no”.

With `NC(=Nc1ccccc1)NC(=O)c1nc(Cl)c(N)nc1N` [Phenamil methanesulfonate] the “Z Score” value [11] was 1.485, the Z score [6] was 1.485 and the Activity [8] was “no”.

For `CN(C)CCC(c1ccc(Br)cc1)c1ccccn1.O=C(O)/C=C\C(=O)O` (racemic) [(±)-Brompheniramine maleate], the Z score [6] was −3.530 and the Activity [8] was “yes”.

In the case of `CN(C)C(=O)N=NC(=O)N(C)C` [N,N,N′,N′-Tetramethylazodicarboxamide], the “Z Score” value (168 h, 3 µM) is reported as −0.6393, the Z score (168 h, 3 µM) is reported as −0.639 and the Activity [5] is reported as “no”.

For `O=C1CCc2cc(OCCCCc3nnnn3C3CCCCC3)ccc2N1` [Cilostazol], the “Z Score” value [11] was 0.8219, the Z score [4] was 0.822 and the Activity [5] was “no”.

In the case of `Cn1cc(C2=C(c3ccc(Cl)cc3Cl)C(=O)NC2=O)c2ccccc21` [SB 216763], the “Z Score” value is reported as −2.542, the Z score [6] is reported as −2.542 and the Activity [10] is reported as “yes”.

With `O=C1NCN(c2ccccc2)C12CCN(CCCC(c1ccc(F)cc1)c1ccc(F)cc1)CC2` [Fluspirilene] the Activity was “no”, the “Z Score” value [3] was 1.589 and the Z score [6] was 1.589.

`CC(CN1c2ccccc2Sc2ccccc21)N(C)C` (stereo not shown) [Promethazine hydrochloride] was tested, and the “Z Score” value [11] was 0.4746, the Z score [6] was 0.475 and the Activity [8] was “no”.

In the case of `O=[N+]([O-])c1ccc(O[C@@H]2O[C@H](CO)[C@@H](O)[C@H](O)[C@H]2F)c([N+](=O)[O-])c1` [2,4-Dinitrophenyl 2-fluoro-2-deoxy-beta-D-glucopyranoside], the “Z Score” value [11] is reported as 0.772, the Z score [4] is reported as 0.772 and the Activity [5] is reported as “no”.

For `CP(=O)(O)C1=CCNCC1` [TPMPA], the “Z Score” value was 0.8742, the Z score [1] was 0.874 and the Activity [2] was “no”.

For `c1ccc(-c2ccccn2)nc1` [2,2′-Bipyridyl], the “Z Score” value was 1.455, the Z score [4] was 1.455 and the Activity [5] was “no”.

With L-Methionine sulfoximine the Activity was “no”, the “Z Score” value was 0.08671 and the Z score was 0.087.

For `Cc1cc(NC(=O)Nc2ccc3c(ccn3C)c2)sn1` [SB 204741], the “Z Score” value was −2.299, the Z score [4] was −2.299 and the Activity [5] was “no”.

With `N=c1ccn2c(n1)O[C@H]1[C@H](O)[C@@H](CO)O[C@H]12` [Ancitabine hydrochloride] the “Z Score” value [9] was −9.951, the Z score [6] was −9.951 and the Activity [10] was “yes”.

— patent US8058243B2, “Method for treating a brain cancer with ifenprodil” (HSC Research and Development Limited Partnership, priority 2006, dated 2011)
